According to patent US6737383B1, “Herbicidal oxadiazolidines” (priority 1999, dated 2004):

Key:
[1] = system: surinam grass; test: Test B pre/postemergence surinam grass; format: in vivo, Brachiaria decumbens
In short: (§1)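 Test chemicals in a non-phytotoxic solvent mixture with surfactant were sprayed preemergence onto planted seeds and postemergence onto plants 2 to 18 cm tall (1- to 4-leaf stage). After twelve to sixteen days in a greenhouse, injury was visually rated against untreated controls from 0 (no effect) to 10 (complete control).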

[2] = system: corn; test: Test B pre/postemergence corn; format: in vivo, Zea mays
In short: as §1

[3] = system: wheat; test: Test B pre/postemergence wheat; format: in vivo, Triticum aestivum
In short: as §1

[4] = system: velvetleaf; test: Test B pre/postemergence velvetleaf; format: in vivo, Abutilon theophrasti
In short: as §1

[5] = system: bedstraw; test: Test B pre/postemergence bedstraw; format: in vivo, Galium aparine
In short: as §1

[6] = system: cocklebur; test: Test B pre/postemergence cocklebur; format: in vivo, Xanthium strumarium
In short: as §1

[7] = system: soybean; test: Test B pre/postemergence soybean; format: in vivo, Glycine max
In short: as §1

[8] = system: sugar beet; test: Test B pre/postemergence sugar beet; format: in vivo, Beta vulgaris
In short: as §1

[9] = system: morningglory; test: Test B pre/postemergence morningglory; format: in vivo, Ipomoea hederacea
In short: as §1

[10] = system: giant foxtail; test: Test B pre/postemergence giant foxtail; format: in vivo, Setaria faberii
In short: as §1

[11] = system: crabgrass; test: Test B pre/postemergence crabgrass; format: in vivo, Digitaria sanguinalis
In short: as §1

[12] = system: wild oat; test: Test B pre/postemergence wild oat; format: in vivo, Avena fatua
In short: as §1

[13] = system: pigweed; test: Test B pre/postemergence pigweed; format: in vivo, Amaranthus retroflexus
In short: as §1

[14] = system: blackgrass; test: Test B pre/postemergence blackgrass; format: in vivo, Alopecurus myosuroides
In short: as §1

[15] = system: rape; test: Test B pre/postemergence rape; format: in vivo, Brassica napus
In short: as §1

[16] = system: purple nutsedge; test: Test B pre/postemergence purple nutsedge; format: in vivo, Cyperus rotundus
In short: as §1

[17] = Postemergence, Rate 62 g/ha, scale 0 to 10, 0 is no effect, 10 is complete control
[18] = Postemergence, Rate 125 g/ha, scale of 0 to 10 where 0 is no effect and 10 is complete control
[19] = Preemergence, Rate 125 g/ha, scale of 0 to 10 where 0 is no effect and 10 is complete control
[20] = Preemergence, Rate 250 g/ha, scale 0 (no effect) to 10 (complete control)
[21] = Rate 250 g/ha, Postemergence, scale 0 to 10, 0 is no effect, 10 is complete control
[22] = Rate 500 g/ha, Postemergence, scale 0 to 10, 0 is no effect, 10 is complete control
[23] = Rate 500 g/ha, Preemergence, scale 0 to 10 (0 no effect, 10 complete control)
[24] = Rate 62 g/ha, Preemergence, scale 0 to 10
[25] = Preemergence, Rate 62 g/ha, scale of 0 to 10 where 0 is no effect and 10 is complete control
[26] = Preemergence, Rate 250 g/ha, scale 0 to 10 (0 no effect, 10 complete control)
[27] = Preemergence, Rate 500 g/ha, scale of 0 to 10 where 0 is no effect and 10 is complete control

SMILES: C#CCn1c(=O)on(C(=O)N(c2ccc(F)cc2)C(C)C)c1=O [Compound 743]
- Plant response rating, B. signalgrass [1, 17]: 0
- B. signalgrass plant response rating [1, 18]: 0
- Plant response rating, B. signalgrass [1, 19]: 3
- B. signalgrass plant response rating [1, 20]: 4
- B. signalgrass plant response rating [1, 21]: 3
- B. signalgrass plant response rating [1, 22]: 7
- B. signalgrass plant response rating [1, 23]: 8
- Plant response rating, Corn [2, 17]: 0
- Corn plant response rating [2, 18]: 0
- Plant response rating, Corn [2, 19]: 0
- Corn plant response rating [2, 20]: 0
- Corn plant response rating [2, 24]: 0
- Corn plant response rating [2, 21]: 0
- Corn plant response rating [2, 22]: 0
- Corn plant response rating [2, 23]: 0
- Plant response rating, Wheat [3, 17]: 0
- Wheat plant response rating [3, 18]: 0
- Plant response rating, Wheat [3, 19]: 0
- Wheat plant response rating [3, 20]: 0
- Wheat plant response rating [3, 24]: 0
- Wheat plant response rating [3, 21]: 3
- Wheat plant response rating [3, 22]: 6
- Wheat plant response rating [3, 23]: 5
- Plant response rating, Velvetleaf [4, 17]: 0
- Velvetleaf plant response rating [4, 18]: 0
- Plant response rating, Velvetleaf [4, 19]: 2
- Velvetleaf plant response rating [4, 20]: 3
- Velvetleaf plant response rating [4, 24]: 0
- Velvetleaf plant response rating [4, 21]: 0
- Velvetleaf plant response rating [4, 22]: 4
- Velvetleaf plant response rating [4, 23]: 3
- Plant response rating, Bedstraw [5, 17]: 0
- Bedstraw plant response rating [5, 18]: 0
- Plant response rating, Bedstraw [5, 19]: 0
- Bedstraw plant response rating [5, 20]: 0
- Bedstraw plant response rating [5, 24]: 0
- Bedstraw plant response rating [5, 21]: 4
- Bedstraw plant response rating [5, 22]: 8
- Bedstraw plant response rating [5, 23]: 8
- Plant response rating, Cocklebur [6, 17]: 0
- Cocklebur plant response rating [6, 18]: 0
- Plant response rating, Cocklebur [6, 19]: 0
- Cocklebur plant response rating [6, 20]: 0
- Cocklebur plant response rating [6, 24]: 0
- Cocklebur plant response rating [6, 21]: 0
- Cocklebur plant response rating [6, 22]: 3
- Cocklebur plant response rating [6, 23]: 10
- Plant response rating, Soybean [7, 17]: 0
- Soybean plant response rating [7, 18]: 0
- Plant response rating, Soybean [7, 19]: 0
- Soybean plant response rating [7, 20]: 0
- Soybean plant response rating [7, 24]: 0
- Soybean plant response rating [7, 21]: 4
- Soybean plant response rating [7, 22]: 4
- Soybean plant response rating [7, 23]: 0
- Plant response rating, Sugarbeets [8, 17]: 0
- Sugarbeets plant response rating [8, 18]: 0
- Plant response rating, Sugarbeets [8, 19]: 2
- Sugarbeets plant response rating [8, 20]: 4
- Sugarbeets plant response rating [8, 24]: 0
- Sugarbeets plant response rating [8, 21]: 4
- Sugarbeets plant response rating [8, 22]: 4
- Sugarbeets plant response rating [8, 23]: 6
- Plant response rating, Morningglory [9, 17]: 5
- Morningglory plant response rating [9, 18]: 3
- Plant response rating, Morningglory [9, 19]: 0
- Morningglory plant response rating [9, 20]: 0
- Morningglory plant response rating [9, 24]: 0
- Morningglory plant response rating [9, 21]: 2
- Morningglory plant response rating [9, 22]: 10
- Morningglory plant response rating [9, 23]: 0
- Plant response rating, Giant foxtail [10, 17]: 7
- Giant foxtail plant response rating [10, 18]: 7
- Plant response rating, Giant foxtail [10, 19]: 9
- Giant foxtail plant response rating [10, 20]: 9
- Giant foxtail plant response rating [10, 24]: 9
- Giant foxtail plant response rating [10, 21]: 8
- Giant foxtail plant response rating [10, 22]: 8
- Giant foxtail plant response rating [10, 23]: 9
- Plant response rating, Crabgrass [11, 17]: 2
- Crabgrass plant response rating [11, 18]: 5
- Plant response rating, Crabgrass [11, 19]: 9
- Crabgrass plant response rating [11, 20]: 9
- Crabgrass plant response rating [11, 24]: 9
- Crabgrass plant response rating [11, 21]: 7
- Crabgrass plant response rating [11, 22]: 9
- Crabgrass plant response rating [11, 23]: 9
- Plant response rating, Wild oats [12, 17]: 0
- Wild oats plant response rating [12, 18]: 0
- Plant response rating, Wild oats [12, 19]: 5
- Wild oats plant response rating [12, 20]: 5
- Wild oats plant response rating [12, 24]: 5
- Wild oats plant response rating [12, 21]: 0
- Wild oats plant response rating [12, 22]: 3
- Wild oats plant response rating [12, 23]: 9
- Plant response rating, Redroot pigweed [13, 17]: 0
- Redroot pigweed plant response rating [13, 18]: 0
- Plant response rating, Redroot pigweed [13, 19]: 9
- Redroot pigweed plant response rating [13, 20]: 9
- Redroot pigweed plant response rating [13, 24]: 7
- Redroot pigweed plant response rating [13, 21]: 5
- Redroot pigweed plant response rating [13, 22]: 8
- Redroot pigweed plant response rating [13, 23]: 10
- Plant response rating, Blackgrass [14, 17]: 3
- Blackgrass plant response rating [14, 18]: 5
- Plant response rating, Blackgrass [14, 19]: 8
- Blackgrass plant response rating [14, 20]: 9
- Blackgrass plant response rating [14, 24]: 8
- Blackgrass plant response rating [14, 21]: 5
- Blackgrass plant response rating [14, 22]: 5
- Blackgrass plant response rating [14, 23]: 9
- Plant response rating, Rape [15, 17]: 0
- Rape plant response rating [15, 18]: 0
- Plant response rating, Rape [15, 19]: 5
- Rape plant response rating [15, 20]: 9
- Rape plant response rating [15, 24]: 5
- Rape plant response rating [15, 21]: 0
- Rape plant response rating [15, 22]: 3
- Rape plant response rating [15, 23]: 9
- Plant response rating, Nutsedge [16, 17]: 0
- Nutsedge plant response rating [16, 18]: 2
- Nutsedge plant response rating [16, 20]: 2
- Nutsedge plant response rating [16, 24]: 0
- Nutsedge plant response rating [16, 21]: 3
- Nutsedge plant response rating [16, 22]: 9
- Nutsedge plant response rating [16, 23]: 9

SMILES: CCn1ncc(Cn2c(=O)on(C(=O)N(c3ccc(F)cc3)C(C)C)c2=O)c1Cl [Compound 686]
- B. signalgrass plant response rating [1, 25]: 2
- Plant response rating, B. signalgrass [1, 19]: 5
- Plant response rating, B. signalgrass [1, 26]: 7
- Plant response rating, B. signalgrass [1, 27]: 9
- Corn plant response rating [2, 25]: 0
- Plant response rating, Corn [2, 19]: 0
- Plant response rating, Corn [2, 26]: 0
- Wheat plant response rating [3, 25]: 0
- Plant response rating, Wheat [3, 19]: 0
- Velvetleaf plant response rating [4, 25]: 0
- Plant response rating, Velvetleaf [4, 19]: 0
- Bedstraw plant response rating [5, 25]: 0
- Plant response rating, Bedstraw [5, 19]: 0
- Plant response rating, Bedstraw [5, 26]: 0
- Plant response rating, Bedstraw [5, 27]: 0
- Cocklebur plant response rating [6, 25]: 0
- Plant response rating, Cocklebur [6, 26]: 0
- Plant response rating, Cocklebur [6, 27]: 0
- Soybean plant response rating [7, 25]: 0
- Plant response rating, Soybean [7, 19]: 0
- Sugarbeets plant response rating [8, 25]: 0
- Plant response rating, Sugarbeets [8, 19]: 0
- Morningglory plant response rating [9, 25]: 0
- Plant response rating, Morningglory [9, 19]: 0
- Giant foxtail plant response rating [10, 25]: 9
- Plant response rating, Giant foxtail [10, 19]: 9
- Crabgrass plant response rating [11, 25]: 8
- Plant response rating, Crabgrass [11, 19]: 9
- Plant response rating, Crabgrass [11, 26]: 10
- Wild oats plant response rating [12, 25]: 0
- Plant response rating, Wild oats [12, 19]: 1
- Redroot pigweed plant response rating [13, 25]: 0
- Plant response rating, Redroot pigweed [13, 19]: 6
- Blackgrass plant response rating [14, 25]: 4
- Plant response rating, Blackgrass [14, 19]: 7
- Plant response rating, Blackgrass [14, 26]: 8
- Plant response rating, Blackgrass [14, 27]: 9
- Rape plant response rating [15, 25]: 0
- Plant response rating, Rape [15, 19]: 0
- Nutsedge plant response rating [16, 25]: 0
- Plant response rating, Nutsedge [16, 19]: 0
